From PubChem BioAssay (NCI)
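Results reflect a 48-hour exposure of cells in 96-well plates to compound at five concentrations. TGI is the concentration that stops growth completely.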

Columns and labels:
Experiment in all cases: NCI-60 cell line screen, 48 h
[1] = test system: 786-0 renal
[2] = test system: A498 renal
[3] = test system: A549 NSCLC
[4] = test system: ACHN renal
[5] = test system: BT-549 breast
[6] = test system: CAKI-1 renal
[7] = test system: CCRF-CEM leukemia
[8] = test system: COLO 205 colon
[9] = test system: DU-145 prostate
[10] = test system: EKVX NSCLC
[11] = test system: HCC-2998 colon
[12] = test system: HCT-116 colon
[13] = test system: HCT-15 colon
[14] = test system: HL-60(TB) leukemia
[15] = test system: HOP-62 NSCLC
[16] = test system: HOP-92 NSCLC
[17] = test system: HS 578T breast
[18] = test system: HT29 colon
[19] = test system: IGROV1 ovarian
[20] = test system: K-562 leukemia
[21] = test system: KM12 colon
[22] = test system: LOX IMVI melanoma
[23] = test system: M14 melanoma
[24] = test system: MALME-3M melanoma
[25] = test system: MCF7 breast
[26] = test system: MDA-MB-231 breast
[27] = test system: MDA-MB-435
[28] = test system: MDA-N
[29] = test system: MOLT-4 leukemia
[30] = test system: NCI-H226 lung
[31] = test system: NCI-H23 lung
[32] = test system: NCI-H460 lung
[33] = test system: NCI-H522 lung
[34] = test system: NCI/ADR-RES ovarian
[35] = test system: OVCAR-3 ovarian
[36] = test system: OVCAR-4 ovarian
[37] = test system: OVCAR-5 ovarian
[38] = test system: OVCAR-8 ovarian
[39] = test system: PC-3 prostate
[40] = test system: RPMI-8226 leukemia
[41] = test system: RXF 393 renal
[42] = test system: SF-268 CNS
[43] = test system: SF-295 CNS
[44] = test system: SF-539 CNS
[45] = test system: SK-MEL-2 melanoma
[46] = test system: SK-MEL-28 melanoma
[47] = test system: SK-MEL-5 melanoma
[48] = test system: SK-OV-3 ovarian
[49] = test system: SN12C renal
[50] = test system: SNB-19 CNS
[51] = test system: SNB-75 CNS
[52] = test system: SR leukemia
[53] = test system: SW-620 colon
[54] = test system: TK-10 renal
[55] = test system: U251 CNS
[56] = test system: UACC-257 melanoma
[57] = test system: UACC-62 melanoma
[58] = test system: UO-31 renal
[59] = test system: T-47D breast

SMILES: CC(C)=CCC/C(C)=C/CC/C(C)=C/CC/C(=C/CC/C(C)=C\CC/C(C)=C/CC/C(C)=C/CC/C(C)=C/Cc1cc(O)ccc1O)CO
- TGI [1]: 9.66 µM
- TGI [2]: 18.2 µM
- TGI [3]: 22.6 µM
- TGI [4]: 34.9 µM
- TGI [5]: 12.5 µM
- TGI [6]: 4.82 µM
- TGI [7]: > 30.7 µM
- TGI [8]: 7.87 µM
- TGI [9]: > 100 µM
- TGI [10]: 33.5 µM
- TGI [11]: > 42.1 µM
- TGI [12]: > 31.9 µM
- TGI [13]: 39 µM
- TGI [14]: 9.5 µM
- TGI [15]: 41.3 µM
- TGI [16]: 31.4 µM
- TGI [17]: 8.44 µM
- TGI [18]: 18.9 µM
- TGI [19]: 10.9 µM
- TGI [20]: > 100 µM
- TGI [21]: 4.16 µM
- TGI [22]: > 23.4 µM
- TGI [23]: 4.88 µM
- TGI [24]: 6.37 µM
- TGI [25]: 15.2 µM
- TGI [26]: > 78.8 µM
- TGI [27]: > 31.8 µM
- TGI [28]: 64.3 µM
- TGI [29]: > 59.5 µM
- TGI [30]: 6.54 µM
- TGI [31]: 4.89 µM
- TGI [32]: 33 µM
- TGI [33]: 6.26 µM
- TGI [34]: 19.4 µM
- TGI [35]: 16.5 µM
- TGI [36]: 19.7 µM
- TGI [37]: > 91.5 µM
- TGI [38]: 13.5 µM
- TGI [39]: 15.5 µM
- TGI [40]: > 100 µM
- TGI [41]: 2 µM
- TGI [42]: 9.17 µM
- TGI [43]: 5.85 µM
- TGI [44]: 2.48 µM
- TGI [45]: 11.5 µM
- TGI [46]: 10.9 µM
- TGI [47]: 15.9 µM
- TGI [48]: 40.7 µM
- TGI [49]: > 100 µM
- TGI [50]: > 100 µM
- TGI [51]: 12.7 µM
- TGI [52]: > 37.6 µM
- TGI [53]: 42.5 µM
- TGI [54]: 19.5 µM
- TGI [55]: > 28.5 µM
- TGI [56]: 11.8 µM
- TGI [57]: 5.17 µM
- TGI [58]: 21.4 µM

SMILES: O=C(O)CCC(=O)c1ccc(Cl)cc1
- TGI [1]: > 100 µM
- TGI [3]: > 100 µM
- TGI [6]: > 100 µM
- TGI [7]: > 100 µM
- TGI [8]: > 100 µM
- TGI [9]: > 100 µM
- TGI [10]: > 100 µM
- TGI [12]: > 100 µM
- TGI [14]: > 100 µM
- TGI [15]: > 100 µM
- TGI [16]: > 100 µM
- TGI [18]: > 100 µM
- TGI [19]: > 100 µM
- TGI [20]: > 100 µM
- TGI [21]: > 100 µM
- TGI [22]: > 100 µM
- TGI [23]: > 100 µM
- TGI [27]: > 100 µM
- TGI [28]: > 100 µM
- TGI [29]: > 100 µM
- TGI [30]: > 100 µM
- TGI [35]: > 100 µM
- TGI [36]: > 100 µM
- TGI [37]: > 100 µM
- TGI [38]: > 100 µM
- TGI [40]: > 100 µM
- TGI [41]: > 100 µM
- TGI [43]: > 100 µM
- TGI [44]: > 100 µM
- TGI [46]: > 100 µM
- TGI [47]: > 100 µM
- TGI [48]: > 100 µM
- TGI [49]: > 100 µM
- TGI [50]: > 100 µM
- TGI [51]: > 100 µM
- TGI [52]: > 100 µM
- TGI [53]: > 100 µM
- TGI [59]: > 100 µM
- TGI [58]: > 100 µM

SMILES: COc1cc2c(cc1OC)C1(COc3cc(O)c(O)c(O)c3C1=O)C2 (centres undefined)
- TGI [1]: > 50 µM
- TGI [2]: > 50 µM
- TGI [3]: > 50 µM
- TGI [4]: > 50 µM
- TGI [6]: > 50 µM
- TGI [7]: > 50 µM
- TGI [8]: > 50 µM
- TGI [9]: > 50 µM
- TGI [12]: > 50 µM
- TGI [13]: > 50 µM
- TGI [14]: > 50 µM
- TGI [15]: > 50 µM
- TGI [17]: > 50 µM
- TGI [18]: > 50 µM
- TGI [19]: > 50 µM
- TGI [20]: > 50 µM
- TGI [21]: > 50 µM
- TGI [22]: > 50 µM
- TGI [23]: > 50 µM
- TGI [24]: > 50 µM
- TGI [25]: 41.1 µM
- TGI [26]: > 50 µM
- TGI [27]: > 50 µM
- TGI [28]: > 50 µM
- TGI [29]: > 50 µM
- TGI [30]: > 50 µM
- TGI [31]: > 50 µM
- TGI [32]: > 50 µM
- TGI [33]: > 50 µM
- TGI [34]: > 50 µM
- TGI [35]: > 50 µM
- TGI [36]: > 50 µM
- TGI [37]: > 50 µM
- TGI [38]: > 50 µM
- TGI [39]: > 50 µM
- TGI [40]: > 50 µM
- TGI [41]: > 50 µM
- TGI [42]: > 50 µM
- TGI [43]: > 50 µM
- TGI [44]: > 50 µM
- TGI [45]: > 50 µM
- TGI [46]: > 50 µM
- TGI [47]: > 50 µM
- TGI [48]: > 50 µM
- TGI [49]: > 50 µM
- TGI [50]: > 50 µM
- TGI [51]: > 50 µM
- TGI [52]: > 50 µM
- TGI [53]: > 50 µM
- TGI [59]: > 50 µM
- TGI [54]: > 50 µM
- TGI [55]: > 50 µM
- TGI [56]: > 50 µM
- TGI [57]: > 50 µM
- TGI [58]: > 50 µM

SMILES: C/C=C/C1OC(O)(C(C)C(O)[C@H](C)C2OC(=O)/C(OC)=C/C(C)=C/[C@@H](C)[C@@H](O)[C@@H](C)C(O)C(C)C/C(C)=C/C=C/C2OC)C[C@@H](OC2CC(O)C(OC(N)=O)C(C)O2)C1C (some centres undefined)
- TGI [1]: 1.42 µM
- TGI [2]: 3.68 µM
- TGI [3]: 13.3 µM
- TGI [4]: 12.1 µM
- TGI [5]: 12 µM
- TGI [6]: 13.9 µM
- TGI [8]: 1.27 µM
- TGI [9]: 16.2 µM
- TGI [10]: 8.37 µM
- TGI [11]: < 0.01 µM
- TGI [12]: 1.42 µM
- TGI [13]: 13.3 µM
- TGI [15]: < 0.01 µM
- TGI [16]: < 0.01 µM
- TGI [17]: 27.1 µM
- TGI [18]: 1.54 µM
- TGI [19]: 12.9 µM
- TGI [21]: 1.33 µM
- TGI [22]: < 0.01 µM
- TGI [23]: < 0.01 µM
- TGI [24]: 0.801 µM
- TGI [25]: 7.65 µM
- TGI [27]: 2.58 µM
- TGI [28]: 1.11 µM
- TGI [29]: < 0.01 µM
- TGI [30]: 6.97 µM
- TGI [31]: 15.3 µM
- TGI [32]: 1.36 µM
- TGI [33]: < 0.01 µM
- TGI [34]: > 68.6 µM
- TGI [35]: 3.24 µM
- TGI [36]: 18.9 µM
- TGI [37]: 3.14 µM
- TGI [38]: 15.7 µM
- TGI [39]: 0.625 µM
- TGI [41]: 1.91 µM
- TGI [42]: 10.3 µM
- TGI [43]: < 0.01 µM
- TGI [44]: < 0.01 µM
- TGI [45]: < 0.01 µM
- TGI [46]: 3.18 µM
- TGI [47]: < 0.01 µM
- TGI [48]: > 43.4 µM
- TGI [49]: 15 µM
- TGI [50]: 10.5 µM
- TGI [51]: 2.12 µM
- TGI [53]: 1.01 µM
- TGI [54]: 1.78 µM
- TGI [55]: 8.91 µM
- TGI [56]: < 0.01 µM
- TGI [57]: < 0.01 µM
- TGI [58]: 13.8 µM
